These results are taken from PMC11414077, “Novel thiazole-based cyanoacrylamide derivatives: DNA cleavage, DNA/BSA binding properties and their anticancer behaviour against colon and breast cancer cells” (BMC Chemistry, 2024).

pIC50: −log10 of the molar value.

Series [1] relates to CT-DNA. Nature of the series: CT-DNA UV-Visible absorption spectrophotometric titration. The series is classed as binding, calf. The conditions noted are these: compound 25 μM, CT-DNA 0–60 μM; peak 423 nm (3b), 359 nm (3c). Here is the method: CT-DNA stock solution was prepared by dissolving CT-DNA in Tris/NaCl buffer (pH 7.1). Then, it was stored at 4°C and was manipulated within 4 days of preparation. The concentration was estimated by applying the equation C=A260nm/ε×b where C is the concentration of DNA solution, A is the absorbance at wavelength 260 nm, b is the path length and ε is the molar extinction coefficient of DNA that equals 6600 M^−1 cm^−1. The purity also was calculated using the absorbance ratio at wavelength 260 and 280 respectively, which was 1.8 indicating free DNA from protein contamination. Stock solutions of compounds 3b and 3c were prepared by dissolving in DMSO.
The interaction between the selected compounds (3b and 3c) and CT-DNA was assessed through the spectrophotometric titration method. In brief, a fixed concentration of compounds (25 μM) was mixed with an accumulative addition of CT-DNA (0–60 μM) at room temperature with a constant DMSO percentage of 5%. After 5 min from each addition, the UV–Vis absorption spectrum (250–650 nm) was recorded. The hyper/hypochromic percentage change at the characteristic peak of 3b and 3c was assessed using the formula: H%=Afree-Abound/Abound×100 . […] Standard Gibbs free energy (ΔG°) was calculated using the equation ΔG° = − RTlnKb (where T is the temperature, 298 K; R is the universal gas constant, 8.314 J K^−1 mol^−1).

Series [2] concerns CT-DNA-EtBr. Nature of the series: Ethidium bromide quenching (displacement) assay. Format: binding, calf. The conditions noted are these: for kq / KSV: CT-DNA-EtBr; for kq: τ0 10^−8 s; for reduction in fluorescence intensity: EtBr 20 µM, CT-DNA 100 µM, 3b 0–160 µM, 3c 0–80 µM; for KSV: Stern–Volmer, room temperature. Here is the method: EtBr is a conventional intercalator whose fluorescence intensity intensifies in response to CT-DNA interaction. Solution of CT-DNA-EtBr with final concentrations of EtBr (20 µM) and CT-DNA (100 µM) in Tris–HCl buffer solution (pH = 7.1) was prepared, then compounds were solubilized in DMSO, added to the prepared solution to attain a range of concentration (0–160 µM) and (0–80 µM) for 3b and 3c, respectively. Then, the mixtures were incubated 3 min after each addition and the emission spectra (540–710 nm) were recorded using an excitation wavelength of 520 nm.
The interaction mode between compound and CT-DNA can be discriminated through fluorescence spectroscopy with the EtBr–CT-DNA system. EtBr is a classic indicator of intercalation where an intense fluorescence signal is emitted from the EtBr-CT-DNA system through intercalation of EtBr between adjacent DNA base pairs with no obvious signal for unaccompanied EtBr. […] The Stern–Volmer equation was used for the study of the effect of quenchers on the CT-DNA-EtBr system. F0/F= 1+KsvQ= 1+kqτ0[Q] where F0 and F are fluorescence intensities in the absence and presence of the compound used for quenching, respectively; KSV is a linear Stern–Volmer quenching constant; [Q] is the concentration of the quenching compound and τ0 is the fluorescence lifetime of the fluorophore (10^−8 s) in absence of the compound responsible for quenching. KSV for 3b and 3c is computed from the linear regression plot of F0/F against [Q]. Also, the binding constant (Kb) and the number of binding sites (n) were determined by the Scatchard method.
log((F0-F)/F)=logKb+nlog[Q]
Kb has been assigned as the intercept and n as the slope in the linear plotting of log((F0–F)/F) versus log[Q]. The detailed results for 3b and 3c were computed and depicted in Table 1.

In series [3] the target is T1, BSA (Bos taurus, UniProt P02769).
T1 construct: purchased BioBasic Inc. (Canada)
Description: BSA UV-Visible absorption spectrophotometric titration. The conditions noted are these: at 277 nm, BSA 15 μM, compound 0–40 μM. Format: binding, bovine. Here is the method: BSA was dissolved in Tris/NaCl buffer (pH 7.1) to prepare the BSA stock solution, which was then kept at 4°C and utilized within a week after preparation. The concentration was evaluated by applying the equation C=A280nm/ε×b where C is the concentration of protein solution, A is the absorbance at wavelength 280 nm, b is the path length and ε is molar extinction coefficient of protein that equals 44,300 M^−1 cm^−1.
The interaction was evaluated through dilution of BSA to 15 μM in Tris/NaCl (pH 7.1) during the spectrophotometric titration. After that, the compounds dissolved in DMSO were added with a range of increasing concentration (0–40 μM), where the final DMSO percentage is 5%. UV–Vis absorption spectrum measurement for each concentration was assessed by Shimadzu UV-3101 PC NIR spectrophotometer after 3 min of each addition. The Kb for compounds 3b and 3c was calculated using equation [54]: 1/Aobs-A0=1/Ac-A0+1/KbAc-A0[compound] where A0, Aobs and Ac are absorbance of solution in the absence, various concentrations, and saturation of the compound at the characteristic peak, respectively. Where Kb is estimated from the plot of 1/Aobs-A0 versus 1/[Drug] .

In series [4] the target is T1, BSA. Description: Tryptophan quenching assay with BSA. The series is classed as binding, bovine. Conditions: for kq / n (binding site numbers) / Kb: BSA; for n (binding site numbers) / Kb: Scatchard method; for Kb / KSV: room temperature; for KSV: Stern–Volmer, BSA 15 µM, λex 289 nm. As to the method:
BSA (15 µM) solution was prepared in Tris/HCl buffer solution (pH = 7.1) and mixed with serial concentrations of compounds 3b and 3c (0–40 µM), achieving 5% final concentration of DMSO. Following 3 min incubation after each addition, fluorescence quenching spectra were recorded from 300 to 450 nm using a spectrofluorometer with an excitation wavelength of 289 nm.
Fluorescence investigations could be used to conduct a specified analysis of whether synthetic molecules bind to biomolecules as BSA. It is widely perceived that predominantly tryptophan (Trp) is responsible for the inherited fluorescence among the other two amino acids [tyrosine (Tyr) and phenylalanine (Phe)] in the BSA [88]. The tryptophan emission spectrum is frequently altered because of protein conformational variation, subunit interactions, substrate binding, or denaturation. Reduced fluorescence emission intensity is observed for 3b and 3c, which may be due to disrupted BSA structure altering the tryptophan microenvironments. Moreover, the internalization of fluorophore residues into the protein's hydrophobic core is due to protein folding or related to the hydrophobic amino acid residues around Trp, such as Leu, Tyr, and phe. […] Also, a linear plot of F0/F against the concentration of 3b and 3c was used for computing the values of KSV (9.0 × 10^4 and 9.9 × 10^4 M^−1) and kq (9.0 × 10^12 and 9.9 × 10^12 M^−1 s^−1) for the titled compounds (3b and 3c, respectively). […] The negative values of ΔG also supported the UV–Vis results of free energy changes and implied the spontaneity of 3b/3c–BSA binding, where the interaction parameters were illustrated in Table 2.

In series [5] the test system is HCT116 cells. Nature of the series: MTT cell viability assay, HCT116. The series is classed as cell-based. The conditions noted are these: Homo sapiens, HCT-116; HCT116, absence of illumination (dark). Here is the method:
(§1) The cytotoxicity of 3b and 3c against MDA-MB-231 and HCT116 cell lines, with and without illumination, was assessed using the MTT test. Two human cancer cell lines, including MDA-MB-231 and HCT116 cell lines, were purchased from the National Research Centre, Dokki, Cairo, Egypt. Briefly, 96-well plates were seeded with cells (5 × 10^3 cells/well) and left overnight. The compounds dissolved in DMSO were then applied to the cells following the serial dilution procedure in the range of 0–100 µM. The cells were then incubated for an additional 20 h. Subsequently, the cells were exposed to UV light for 20 min at a distance of 10 cm. To study the effects of the illumination, a control plate was created under the same circumstances but without illumination. The two plates were incubated for a further 20 h. After that, PBS was used to wash the cells and MTT solution (0.5 mg/ml) was added. To dissolve the generated formazan crystals, the solution was replaced with 100 µl of DMSO per well after 4 h of incubation. An ELISA reader operating at 492 nm was used to measure the absorbance after 15 min of plate shaking. By relating the absorbance of treated and negative control cells, the relative cell viability was calculated. GraphPad Prism software was used to calculate the half inhibitory concentration (IC50). Doxorubicin (0–100 μM) was utilized as a positive cytotoxicity control in the usual dark environment, while the vehicle (DMSO, 0.1%) was used as a negative control.

Series [6] concerns MDA-MB-231 cells. Nature of the series: MTT cell viability assay, MDA-MB-231. Format: cell-based. The conditions noted are these: Homo sapiens; MDA-MB-231, dark conditions. Here is the method:
as §1
In general terms: Tetrazolium assays rely on reduction of a dye to a coloured formazan, in cell work by metabolically active cells.

T1 sequence (P02769 25-607): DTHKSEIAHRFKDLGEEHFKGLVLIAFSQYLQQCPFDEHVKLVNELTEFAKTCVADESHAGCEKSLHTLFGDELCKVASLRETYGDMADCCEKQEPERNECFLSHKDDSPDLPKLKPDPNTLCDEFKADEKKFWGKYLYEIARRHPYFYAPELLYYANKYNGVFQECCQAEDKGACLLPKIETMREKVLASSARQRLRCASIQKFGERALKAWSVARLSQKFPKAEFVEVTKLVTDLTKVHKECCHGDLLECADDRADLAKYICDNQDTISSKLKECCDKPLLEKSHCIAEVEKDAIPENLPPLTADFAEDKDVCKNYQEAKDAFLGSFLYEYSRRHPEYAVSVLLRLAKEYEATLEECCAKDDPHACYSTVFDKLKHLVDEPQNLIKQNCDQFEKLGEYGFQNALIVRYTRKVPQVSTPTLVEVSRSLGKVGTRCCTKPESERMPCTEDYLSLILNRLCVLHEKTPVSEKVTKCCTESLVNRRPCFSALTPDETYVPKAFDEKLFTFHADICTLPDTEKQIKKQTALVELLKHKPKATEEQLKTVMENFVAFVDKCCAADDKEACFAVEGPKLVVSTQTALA

As usually defined, the pIC50 is −log10 of the IC50, conventionally taken in molar units. Higher therefore signals a small IC50. Usually melting point stands for the temperature, or range, at which the solid turns liquid. `N#CC(=Cc1cn(-c2ccccc2)nc1-c1cccs1)C(=O)Nc1nccs1` [Compound 3b, 2-Cyano-3-(1-phenyl-3-(thiophen-2-yl)-1H-pyrazol-4-yl)-N-(thiazol-2-yl)acrylamide] registered a melting point of 252 to 256 °C. For the same molecule, in series [1], the hypochromism is ~ 14%. In series [2], the kq amounted to 2.9e+11 M⁻¹ s⁻¹, the “reduction in fluorescence intensity” value is on record as ~ 33.3% and the KSV worked out at 2900 M⁻¹. Further, in series [3], the hyperchromicity is ~ 52.2%. In addition, in series [4], the kq stood at 9e+12 M⁻¹ s⁻¹, the “n (binding site numbers)” value is reported as 1.3, the Kb stood at 30 M⁻¹ and the KSV amounted to 90000 M⁻¹. In series [5], this molecule had a pIC50 of 4.14. Further, in series [6], the negative logarithm of the IC50 (pIC50) is 4.04.
The molecule `N#CC(=Cc1cn(-c2ccccc2)nc1-c1cccnc1)C(=O)Nc1nccs1` [Compound 3c, 2-Cyano-3-(1-phenyl-3-(pyridin-3-yl)-1H-pyrazol-4-yl)-N-(thiazol-2-yl)acrylamide] came in with a melting point of 250 to 252 °C. For the same molecule, the hypochromism in series [1] is reported as ~ 40%. Further, in series [2], the kq was 5.6e+11 M⁻¹ s⁻¹, the “reduction in fluorescence intensity” value is on record as ~ 30.7% and the KSV turned out to be 5600 M⁻¹. Also, in series [3], the hyperchromicity is reported as ~ 48.2%. Further, in series [4], the kq was 9.9e+12 M⁻¹ s⁻¹, the “n (binding site numbers)” value turned out to be 1.3, the Kb amounted to 34 M⁻¹ and the KSV amounted to 99000 M⁻¹. Besides, the negative-log IC50 (pIC50) in series [5] was 4.09. The molecule further gave a pIC50 in series [6] of 4.19.
Take `Cc1ccc(-c2nn(-c3ccccc3)cc2C=C(C#N)C(=O)Nc2nccs2)cc1` [Compound 3d, 2-Cyano-3-(1-phenyl-3-(p-tolyl)-1H-pyrazol-4-yl)-N-(thiazol-2-yl)acrylamide]: the melting point lay within 255 to 257 °C.
Same read-out and setting: to `N#CC(=Cc1cn(-c2ccccc2)nc1-c1ccc(Cl)cc1)C(=O)Nc1nccs1` [Compound 3f, 3-(3-(4-Chlorophenyl)-1-phenyl-1H-pyrazol-4-yl)-2-cyano-N-(thiazol-2-yl)acrylamide] belongs 270 to 272 °C.
For the molecule `COc1cccc2c1C(=O)c1c(O)c3c(c(O)c1C2=O)C[C@@](O)(C(=O)CO)C[C@@H]3O[C@H]1C[C@H](N)[C@H](O)[C@H](C)O1` [doxorubicin, reference compound], the negative-log IC50 (pIC50) is 4.40 in series [5] and 4.19 in series [6].
